Results: publication PMC6812656 (Cancer cell, 2019)

Legend:
COX-2 = molecular target: T1, COX-2 (Homo sapiens, UniProt P35354); assay: COX fluorescent inhibitor screening assay, COX-2; format: biochemical; conditions: even at 50 μM
T1 sequence (P35354 18-604): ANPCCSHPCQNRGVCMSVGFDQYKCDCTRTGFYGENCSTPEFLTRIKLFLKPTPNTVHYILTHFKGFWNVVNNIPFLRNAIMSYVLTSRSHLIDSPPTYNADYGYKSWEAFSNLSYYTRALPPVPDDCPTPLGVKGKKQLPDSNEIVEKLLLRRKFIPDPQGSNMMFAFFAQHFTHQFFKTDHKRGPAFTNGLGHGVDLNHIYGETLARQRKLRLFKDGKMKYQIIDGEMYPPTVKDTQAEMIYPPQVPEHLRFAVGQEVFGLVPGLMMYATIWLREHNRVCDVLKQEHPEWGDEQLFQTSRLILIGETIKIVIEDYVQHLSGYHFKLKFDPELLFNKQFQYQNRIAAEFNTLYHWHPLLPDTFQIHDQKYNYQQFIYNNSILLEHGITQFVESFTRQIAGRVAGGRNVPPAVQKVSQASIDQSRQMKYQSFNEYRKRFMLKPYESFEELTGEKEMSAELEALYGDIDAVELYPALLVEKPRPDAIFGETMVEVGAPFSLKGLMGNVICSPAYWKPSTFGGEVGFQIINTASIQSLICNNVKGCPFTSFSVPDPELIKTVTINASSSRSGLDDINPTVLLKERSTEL

[1] = test system: HDAC, DOTL1, BRD, LSD1 and Jumonji domain-containing histone demethylases; assay: Inhibition of epigenetic enzymes in vitro; format: biochemical
FTO [2] = molecular target: T2, FTO (Homo sapiens, UniProt Q9C0B1); assay: HPLC-based assay of inhibition of FTO m6A demethylation in RNA; format: biochemical; conditions: HPLC quantification
Target sequence in this assay (Q9C0B1 32-505 limits assumed): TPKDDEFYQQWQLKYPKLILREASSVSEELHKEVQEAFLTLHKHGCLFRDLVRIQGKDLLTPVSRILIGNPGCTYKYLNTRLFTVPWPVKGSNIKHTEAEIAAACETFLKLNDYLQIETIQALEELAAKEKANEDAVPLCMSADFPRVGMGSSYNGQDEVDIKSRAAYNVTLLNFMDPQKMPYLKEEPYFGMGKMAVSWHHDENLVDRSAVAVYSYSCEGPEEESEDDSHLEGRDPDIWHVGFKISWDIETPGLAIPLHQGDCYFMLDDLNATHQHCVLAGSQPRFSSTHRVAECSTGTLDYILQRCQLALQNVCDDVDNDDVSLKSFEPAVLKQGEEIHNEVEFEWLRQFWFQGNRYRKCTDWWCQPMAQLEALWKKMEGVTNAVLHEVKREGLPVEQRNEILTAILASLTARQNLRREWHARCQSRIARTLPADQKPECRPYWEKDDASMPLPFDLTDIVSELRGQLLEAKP

[3] = test system: MA9.3ITD, MA9.3RAS, U937, ML-2 and MV4-11 AML cell lines; assay: Cell proliferation assay, panel of additional AML cell lines; format: cell-based; conditions: Homo sapiens, 96 h, read-out: IC50, proliferation
[4] = Toxicity study in BALB/c mice; format: in vivo; conditions: 20 mg/kg i.p. daily for 14 days
oncogenic proteases = assay: Protease profiling; format: biochemical, human; conditions: 1 μM or 10 μM
ALKBH5 [5] = molecular target: T3, ALKBH5 (Homo sapiens, UniProt Q6P6C2); assay: DARTS assay for ALKBH5 in AML cell lysates; format: binding
Target sequence in this assay (Q6P6C2 whole entry): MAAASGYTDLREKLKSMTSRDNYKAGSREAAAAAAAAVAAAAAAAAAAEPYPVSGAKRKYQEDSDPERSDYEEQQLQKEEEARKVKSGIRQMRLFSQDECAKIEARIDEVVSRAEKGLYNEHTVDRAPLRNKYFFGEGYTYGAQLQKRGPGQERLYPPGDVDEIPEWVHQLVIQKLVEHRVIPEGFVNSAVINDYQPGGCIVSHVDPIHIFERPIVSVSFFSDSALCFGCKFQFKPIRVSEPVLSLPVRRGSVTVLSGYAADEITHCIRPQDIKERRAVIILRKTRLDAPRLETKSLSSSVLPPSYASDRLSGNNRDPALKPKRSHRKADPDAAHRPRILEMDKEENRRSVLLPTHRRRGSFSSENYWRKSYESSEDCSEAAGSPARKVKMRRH

MONOMAC6 AML cells = assay: MONOMAC6 xeno-transplantation leukemic model; format: in vivo, NSGS mice; conditions: 2 mg/kg i.p. daily for 10 days, from 10 days post xeno-transplantation
[6] = Microsomal stability assay; format: in vitro ADME; conditions: SD, rat, liver microsomes
TET1 protein = molecular target: T4, TET1 protein (Homo sapiens, UniProt Q8NFU7); assay: TET1 enzyme activity in vitro; format: biochemical; conditions: 20 μM
T4 sequence (Q8NFU7 1418-2136 limits assumed): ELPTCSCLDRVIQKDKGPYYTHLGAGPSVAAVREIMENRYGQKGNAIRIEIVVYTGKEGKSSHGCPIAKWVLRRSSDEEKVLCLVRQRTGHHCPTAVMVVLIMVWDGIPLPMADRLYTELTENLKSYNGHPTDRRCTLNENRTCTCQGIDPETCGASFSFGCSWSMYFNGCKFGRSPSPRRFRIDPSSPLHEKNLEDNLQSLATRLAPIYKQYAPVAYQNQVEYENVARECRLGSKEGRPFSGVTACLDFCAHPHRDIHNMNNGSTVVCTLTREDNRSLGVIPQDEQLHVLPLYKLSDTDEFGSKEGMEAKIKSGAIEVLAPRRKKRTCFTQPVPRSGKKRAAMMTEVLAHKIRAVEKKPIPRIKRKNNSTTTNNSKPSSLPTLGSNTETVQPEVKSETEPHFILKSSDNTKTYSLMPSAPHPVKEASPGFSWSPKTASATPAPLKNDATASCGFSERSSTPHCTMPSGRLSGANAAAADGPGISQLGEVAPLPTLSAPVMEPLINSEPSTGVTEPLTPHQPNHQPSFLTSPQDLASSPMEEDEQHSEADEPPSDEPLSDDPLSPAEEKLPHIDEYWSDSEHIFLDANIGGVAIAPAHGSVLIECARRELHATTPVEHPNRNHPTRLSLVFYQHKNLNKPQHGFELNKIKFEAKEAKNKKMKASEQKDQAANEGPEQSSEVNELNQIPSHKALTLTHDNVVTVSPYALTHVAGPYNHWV

FTO [7] = molecular target: T2, FTO; assay: DARTS assay for FTO in AML cell lysates; format: binding; conditions: 50, 200, 500 μM
Target sequence in this assay (Q9C0B1 whole entry): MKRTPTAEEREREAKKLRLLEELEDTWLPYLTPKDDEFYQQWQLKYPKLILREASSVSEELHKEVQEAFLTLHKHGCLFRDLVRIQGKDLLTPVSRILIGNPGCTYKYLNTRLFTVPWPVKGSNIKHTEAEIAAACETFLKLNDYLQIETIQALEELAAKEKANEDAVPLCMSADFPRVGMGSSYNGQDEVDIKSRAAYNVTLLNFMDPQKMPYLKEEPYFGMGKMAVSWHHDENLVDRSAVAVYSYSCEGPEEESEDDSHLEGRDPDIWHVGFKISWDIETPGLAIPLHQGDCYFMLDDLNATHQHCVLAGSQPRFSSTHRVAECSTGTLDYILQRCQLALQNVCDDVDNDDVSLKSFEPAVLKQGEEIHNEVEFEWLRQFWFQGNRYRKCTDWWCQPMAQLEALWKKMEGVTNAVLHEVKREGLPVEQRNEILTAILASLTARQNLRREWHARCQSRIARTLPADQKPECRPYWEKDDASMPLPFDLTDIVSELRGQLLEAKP

NB4 and MONOMAC6 cells = assay: Cell proliferation assay, NB4 and MONOMAC6; format: cell-based; conditions: Homo sapiens, MONO-MAC-6, 72 h, read-out: IC50, anti-proliferative activity
[8] = test system: functional primary AML LSCs; assay: Secondary transplantation of PDX AML cells; conditions: AML cells from primary FB23-2-treated PDX mice
[9] = test system: m6A peaks in mRNA of MONOMAC6 AML cells; assay: m6A-seq in MONOMAC6 cells; format: cell-based, human; conditions: 5 μM, 72 hr, peaks identified in both DMSO and treated groups
ALKBH5 [10] = molecular target: T3, ALKBH5; assay: HPLC-based assay of inhibition of ALKBH5 m6A demethylation in RNA; format: biochemical
Target sequence in this assay (Q6P6C2 67-394 limits assumed): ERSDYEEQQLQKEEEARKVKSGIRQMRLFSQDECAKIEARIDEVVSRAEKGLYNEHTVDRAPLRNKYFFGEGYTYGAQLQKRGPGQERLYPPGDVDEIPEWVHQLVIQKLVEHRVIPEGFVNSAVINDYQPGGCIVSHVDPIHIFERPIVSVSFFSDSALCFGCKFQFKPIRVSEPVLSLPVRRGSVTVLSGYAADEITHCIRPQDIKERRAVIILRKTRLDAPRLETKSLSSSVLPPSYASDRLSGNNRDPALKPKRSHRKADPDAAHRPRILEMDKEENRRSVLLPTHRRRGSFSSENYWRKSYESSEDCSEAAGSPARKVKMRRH

[11] = Pharmacokinetics in SD rats; format: in vivo; conditions: male, Sprague Dawley, rat, plasma, ip, 3 mg/kg
[12] = test system: human normal bone marrow (BM) cells; assay: Proliferation of normal bone marrow cells; format: cell-based; conditions: BM cells from a healthy donor
[13] = test system: primary AML cells (patient Pt 2017_63); assay: PDX AML mouse model; conditions: 6 mg/kg/day i.p. for 17 days
COX-1 = molecular target: T5, COX-1 (Ovis aries, UniProt P05979); assay: COX fluorescent inhibitor screening assay, COX-1; format: biochemical; conditions: even at 50 μM
T5 sequence (P05979 25-600): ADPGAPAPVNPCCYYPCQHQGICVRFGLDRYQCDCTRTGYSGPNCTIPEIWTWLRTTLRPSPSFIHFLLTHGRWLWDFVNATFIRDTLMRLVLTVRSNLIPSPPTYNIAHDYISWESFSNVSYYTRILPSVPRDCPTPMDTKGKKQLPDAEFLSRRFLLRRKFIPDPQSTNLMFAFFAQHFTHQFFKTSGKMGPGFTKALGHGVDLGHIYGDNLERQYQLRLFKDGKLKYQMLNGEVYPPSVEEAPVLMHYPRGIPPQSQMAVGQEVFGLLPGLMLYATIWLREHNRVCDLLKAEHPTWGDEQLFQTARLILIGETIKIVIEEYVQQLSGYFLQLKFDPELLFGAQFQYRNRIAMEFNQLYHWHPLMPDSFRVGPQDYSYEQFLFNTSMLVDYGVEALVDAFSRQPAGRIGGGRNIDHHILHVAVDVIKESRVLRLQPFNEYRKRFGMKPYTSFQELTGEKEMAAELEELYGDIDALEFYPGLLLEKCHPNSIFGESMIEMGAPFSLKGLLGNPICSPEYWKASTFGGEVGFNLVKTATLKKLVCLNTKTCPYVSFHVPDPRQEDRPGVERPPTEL

human primary AML cells = assay: Cell proliferation assay, primary AML cells from four patients; format: cell-based; conditions: 96 h, read-out: IC50, proliferation of primary AML cells
NB4 cells [14] = assay: Cellular uptake by LC-MS/MS quantitation, NB4; format: cell-based, human; conditions: 10 μM for 24 hr
MONOMAC6 cells [15] = assay: Cell proliferation assay, MONOMAC6; format: cell-based; conditions: Homo sapiens, MONO-MAC-6, 72 h, read-out: IC50, proliferation
MONOMAC6 cells [16] = assay: Cellular uptake by LC-MS/MS quantitation, MONOMAC6; format: cell-based, human; conditions: 10 μM for 24 hr
NB4 cells [17] = assay: Cell proliferation assay, NB4; format: cell-based; conditions: Homo sapiens, NB-4, 72 h, read-out: IC50, proliferation

SMILES: Cc1noc(C)c1-c1cc(Cl)c(Nc2ccccc2C(=O)NO)c(Cl)c1 [FB23-2, 2-((2,6-dichloro-4-(3,5-dimethylisoxazol-4-yl)phenyl)amino)-N-hydroxybenzamide]
- inhibition of COX-2 (COX-2): neither FB23 nor FB23-2 was observed to significantly inhibit
- effect on activities of epigenetic targets in vitro [1]: slightly attenuated
- inhibitory activity on FTO demethylation in vitro (FTO [2]): maintains inhibitory activity
- IC50 [3]: 1.9 to 5.2 µM
- body weight loss [4]: no evidence of body weight loss
- hematopoiesis (hematology and plasma biochemistry) vs vehicle [4]: no significant difference
- physical damage on organs [4]: nor was any physical damage observed
- inhibition of oncogenic proteases (oncogenic proteases): barely inhibited
- direct binding to ALKBH5 (DARTS) (ALKBH5 [5]): could not directly bind
- survival of leukemic mice (MONOMAC6 AML cells): almost doubling the median survival
- CLint scaled at 3 μM [6]: 19.7 mL/min/kg
- half-life at 3 μM [6]: 2.13 h
- inhibition of TET1 protein in vitro (TET1 protein): minimally inhibited
- protease resistance of FTO protein (DARTS) (FTO [7]): protease-resistant
- IC50 (NB4 and MONOMAC6 cells): 0.8 to 1.5 µM
- secondary PDX mice still surviving after 100 days [8]: 50%
- share of m6A peaks increased upon treatment [9]: 62.1%
- inhibition of ALKBH5 demethylation in vitro (ALKBH5 [10]): neither FB23 nor FB23-2 inhibits
- AUC(0-t) [11]: 2180 ± 152 ng·h/mL
- Cmax [11]: 2420 ± 90.9 ng/mL
- Tmax [11]: 4.8 min
- half-life [11]: 6.7 ± 1.3 h
- effect on proliferation of normal BM cells [12]: minimally altered proliferation
- median survival time [13]: 58 days
- inhibition of COX-1 (COX-1): neither FB23 nor FB23-2 was observed to significantly inhibit
- IC50 (human primary AML cells): 1.6 to 16 µM

SMILES: Cc1noc(C)c1-c1cc(Cl)c(Nc2ccccc2C(=O)O)c(Cl)c1 [FB23, 2-((2,6-dichloro-4-(3,5-dimethylisoxazol-4-yl)phenyl)amino)benzoic acid]
- inhibition of COX-2 (COX-2): neither FB23 nor FB23-2 was observed to significantly inhibit
- effect on activities of epigenetic targets in vitro [1]: slightly attenuated
- intracellular concentration (NB4 cells [14]): 0.02 nmol/million
- IC50 (MONOMAC6 cells [15]): 23.6 µM
- intracellular concentration (MONOMAC6 cells [16]): 0.015 nmol/million
- inhibition of ALKBH5 demethylation in vitro (ALKBH5 [10]): neither FB23 nor FB23-2 inhibits
- inhibition of COX-1 (COX-1): neither FB23 nor FB23-2 was observed to significantly inhibit
- IC50 (NB4 cells [17]): 44.8 µM
